The target of assay [1] is T1, Tyrosine-protein phosphatase non-receptor type 11 (Homo sapiens, UniProt Q06124).
T1 sequence (Q06124 whole entry): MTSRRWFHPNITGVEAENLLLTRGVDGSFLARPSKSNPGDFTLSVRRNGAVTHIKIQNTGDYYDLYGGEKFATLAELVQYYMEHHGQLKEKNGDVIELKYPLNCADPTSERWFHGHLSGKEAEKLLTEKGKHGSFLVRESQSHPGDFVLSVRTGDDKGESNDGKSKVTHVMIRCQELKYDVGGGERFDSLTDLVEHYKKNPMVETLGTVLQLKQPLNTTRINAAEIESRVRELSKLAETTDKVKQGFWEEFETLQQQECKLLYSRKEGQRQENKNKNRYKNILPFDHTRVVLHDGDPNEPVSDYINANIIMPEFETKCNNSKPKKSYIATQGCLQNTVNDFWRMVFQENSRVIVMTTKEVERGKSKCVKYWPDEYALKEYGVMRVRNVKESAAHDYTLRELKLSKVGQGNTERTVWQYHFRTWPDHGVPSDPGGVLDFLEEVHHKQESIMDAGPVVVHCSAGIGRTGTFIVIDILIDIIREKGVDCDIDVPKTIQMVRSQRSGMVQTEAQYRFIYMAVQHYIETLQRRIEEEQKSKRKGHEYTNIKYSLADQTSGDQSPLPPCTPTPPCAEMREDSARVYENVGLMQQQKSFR

The target in assay [2] is T1, Tyrosine-protein phosphatase non-receptor type 11. The source holds these as a separate data set.
Description: Allosteric inhibition of recombinant human SHP2 PTP domain (237 to 535 residues) using DiFMUP as substrate preincubated for 30 mins and followed by substrate addition and measured by microplate reader method
Assay [3] in a line: Inhibition of SHP2 E76A mutant (unknown origin). Also on record: species or system Homo sapiens.
For assay [4], the target named is Tyrosine-protein phosphatase non-receptor type 6 (Homo sapiens, UniProt P29350). In words: Inhibition of wild-type SHP1 (2 to 595 residues) (unknown origin) using DiFMUP as substrate and measured by biochemical assay.
Chain of Tyrosine-protein phosphatase non-receptor type 6 (P29350 whole entry, the tested form may be a part): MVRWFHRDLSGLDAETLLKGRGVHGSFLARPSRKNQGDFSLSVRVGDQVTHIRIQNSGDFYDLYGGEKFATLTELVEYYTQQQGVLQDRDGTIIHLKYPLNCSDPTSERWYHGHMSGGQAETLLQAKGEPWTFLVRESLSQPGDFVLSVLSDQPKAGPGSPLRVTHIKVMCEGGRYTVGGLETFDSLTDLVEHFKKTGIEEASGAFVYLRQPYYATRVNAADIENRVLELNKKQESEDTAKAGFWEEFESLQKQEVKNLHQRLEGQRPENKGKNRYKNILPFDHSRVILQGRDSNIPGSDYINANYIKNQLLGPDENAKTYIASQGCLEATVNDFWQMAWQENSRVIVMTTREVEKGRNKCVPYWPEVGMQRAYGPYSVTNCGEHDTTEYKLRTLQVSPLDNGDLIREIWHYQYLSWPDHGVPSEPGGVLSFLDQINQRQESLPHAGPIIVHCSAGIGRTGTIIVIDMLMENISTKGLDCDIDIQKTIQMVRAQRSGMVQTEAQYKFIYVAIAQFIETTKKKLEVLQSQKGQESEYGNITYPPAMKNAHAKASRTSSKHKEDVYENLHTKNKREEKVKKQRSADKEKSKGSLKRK
The target of assay [5] is T2, Tyrosine-protein phosphatase non-receptor type 1 (Homo sapiens, UniProt P18031).
T2 sequence (P18031 whole entry): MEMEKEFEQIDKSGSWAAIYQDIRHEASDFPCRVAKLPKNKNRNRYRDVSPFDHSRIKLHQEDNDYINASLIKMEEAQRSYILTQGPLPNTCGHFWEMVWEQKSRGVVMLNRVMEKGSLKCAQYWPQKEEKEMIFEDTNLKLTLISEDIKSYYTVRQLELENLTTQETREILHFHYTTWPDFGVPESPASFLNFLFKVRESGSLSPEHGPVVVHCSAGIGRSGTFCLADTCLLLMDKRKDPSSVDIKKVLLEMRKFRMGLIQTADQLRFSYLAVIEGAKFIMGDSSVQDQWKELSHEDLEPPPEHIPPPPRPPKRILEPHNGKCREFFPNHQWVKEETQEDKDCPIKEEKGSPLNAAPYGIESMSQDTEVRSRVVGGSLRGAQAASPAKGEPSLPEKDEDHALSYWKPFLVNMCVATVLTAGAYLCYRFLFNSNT
Nature of the assay: Inhibition of wild-type PTP1B (2 to 435 residues) (unknown origin) using DiFMUP as substrate and measured by biochemical assay.

The target in assay [6] is T1, Tyrosine-protein phosphatase non-receptor type 11. In words: Reversible inhibition of wild-type human SHP2 using DiFMUP as substrate and measured by jump dilution assay.

Each structure is given as a SMILES string.

Our source for the IC50 and Ki values is ChEMBL document CHEMBL5143569 (Eur J Med Chem, 2022).

One may read the IC50 as the concentration that gives 50% inhibition. Read a high IC50 as weaker potency. The term Ki denotes a dissociation constant, usually derived from enzyme kinetics or from competition with a known ligand.

Turning to `COc1ccccc1Sc1ncc(N2CCC(C)(N)CC2)nc1N`, the IC50 in assay [1] is 0.079 µM; in assay [2], greater than 10 µM.
For `CNC1CCN(c2cnc(-c3cccc(Cl)c3Cl)c(N)n2)CC1`, in that order: 1.64 µM and greater than 10 µM.
The matching figures for `CC1(N)CCN(c2cnc(Sc3ccc(Cl)cc3)c(N)n2)CC1`: 3.84 µM and greater than 10 µM.
For the molecule `CC1(N)CCN(c2cnc(Sc3cccc(Cl)c3Cl)c(N)n2)CC1`, the IC50 was 0.025 µM in assay [1] and greater than 10 µM in assay [2].
As for `CC1(N)CCN(c2cnc(Sc3cccc4ccccc34)c(N)n2)CC1`, the IC50 in assay [1] was 0.175 µM; in assay [2], greater than 10 µM.
The matching figures for `Nc1nc(N2CCNCC2)cnc1-c1cccc(Cl)c1Cl`: 0.712 µM and greater than 10 µM.
For `Nc1nc(N2CC[C@H](N)C2)cnc1-c1cccc(Cl)c1Cl`, in that order: 2.03 µM and greater than 10 µM.
`CC1(N)CCN(c2cnc(-c3cccc(F)c3F)c(N)n2)CC1`: the results for the IC50 in assay [1] and in assay [2] were 5.71 µM and greater than 10 µM, respectively.
For `CC1(N)CCN(c2cnc(Sc3ccccc3Br)c(N)n2)CC1`, in that order: 0.059 µM and greater than 10 µM.
Regarding `CC1(N)CCN(c2cnc(Sc3ccccc3F)c(N)n2)CC1`, the figures for the IC50 in assay [1] and in assay [2] were 0.484 µM and greater than 10 µM, respectively.
For `Nc1nc(N2CCC(N)CC2)cnc1-c1cccc(Cl)c1Cl`, in that order: 2.77 µM and greater than 10 µM.
The matching figures for `CC1(N)CCN(c2cnc(Sc3cccc(Cl)c3)c(N)n2)CC1`: 0.747 µM and greater than 10 µM.
`CC1(N)CCN(c2nc(-c3ccc4cc(Br)ccc4c3)cs2)CC1` displayed an IC50 in assay [3] of 0.71 µM.
For `CN1CCN(c2cnc(-c3cccc(Cl)c3Cl)c(N)n2)CC1`, the IC50 in assay [1] is 0.695 µM; in assay [2], greater than 10 µM.
For the molecule `CC1(N)CCN(c2cnc(Sc3ccccc3C(F)(F)F)c(N)n2)CC1`, the IC50 in assay [1] is 0.178 µM; in assay [2], greater than 10 µM.
For `NCCC1CCN(c2cnc(-c3cccc(Cl)c3Cl)c(N)n2)CC1`, in that order: 0.858 µM and greater than 10 µM.
Turning to `CN(CCN)c1cnc(-c2cccc(Cl)c2Cl)c(N)n1`, the results for the IC50 in assay [1] and in assay [2] were 9.66 µM and greater than 10 µM, respectively.
The matching figures for `NCC1CCN(c2cnc(Sc3cccc(Cl)c3Cl)c(N)n2)CC1`: 0.11 µM and greater than 10 µM.
As to `CC1(N)CCN(c2cnc(-c3cccc(Cl)c3Cl)c(N)n2)CC1`, the IC50 in assay [4] and in assay [5] was greater than 100 µM each time.
`CC1(N)CCN(c2cnc(Sc3ccccc3Cl)c(N)n2)CC1`: the concentration for half-maximal inhibition (IC50) in assay [1] is 0.098 µM; in assay [2] it was greater than 10 µM.
As to `Nc1nc(N2CCC(O)CC2)cnc1-c1cccc(Cl)c1Cl`, the IC50 was 6.18 µM in assay [1] and greater than 10 µM in assay [2].
`Cc1ccc(-c2ncc(N3CCC(C)(N)CC3)nc2N)cc1`: the IC50 is 9.03 µM in assay [1] and greater than 10 µM in assay [2].
The matching figures for `CC1(N)CCN(c2cnc(SC3CCCCC3)c(N)n2)CC1`: 9.55 µM and greater than 10 µM.
`CC1(CN)CCN(c2cnc(Sc3cccc(Cl)c3Cl)c(N)n2)CC1` had a Ki in assay [6] of 0.022 µM. Also, the IC50 was greater than 100 µM in assay [4], greater than 100 µM in assay [5] and greater than 10 µM in assay [2].
Take `CC1(N)CCN(c2cnc(Sc3ccc4ccccc4c3)c(N)n2)CC1`: the IC50 in assay [1] was 0.976 µM; in assay [2] it was greater than 10 µM.
For the molecule `Cc1ccccc1Sc1ncc(N2CCC(C)(N)CC2)nc1N`, the 50% inhibitory concentration (IC50) in assay [1] was 1.8 µM; in assay [2], greater than 10 µM.
Take `CC1(N)CCN(c2cnc(SCc3ccccc3Cl)c(N)n2)CC1`: the IC50 in assay [1] is 5.6 µM; in assay [2], greater than 10 µM.
The matching figures for `CC1(O)CCN(c2cnc(-c3cccc(Cl)c3Cl)c(N)n2)CC1`: 13.7 µM and greater than 10 µM.
In turn, `COc1cccc(-c2nnc3n(Cc4ccc(C(=O)N5CCC[C@H]5C(=O)O)cc4Cl)c(=O)c4ccccc4n23)c1O` yielded an IC50 in assay [1] of 60 µM.
Consider `CC1(N)CCN(c2cnc(-c3ccc(C#N)cc3)c(N)n2)CC1`, for which the values for the IC50 in assay [1] and in assay [2] were 14.8 µM and greater than 10 µM, respectively.
The matching figures for `CC1(N)CCN(c2cnc(SCc3ccccc3)c(N)n2)CC1`: 10.8 µM and greater than 10 µM.
Turning to `CC1(N)CCN(c2cnc(Sc3ccccc3)c(N)n2)CC1`, the results for the IC50 in assay [1] and in assay [2] were 0.811 µM and greater than 10 µM, respectively.
